In a melting point compilation (Tetko et al.; mined from patent text by program, amines drawn as free bases though some values may be those of a salt):

| SMILES | melting point |
| --- | --- |
| COc1cc(Nc2nccc(-c3ccc(N4CCN[C@@H](C)C4)nc3)n2)cc(OC)c1OC | 139 to 140 °C |
| COC(=O)c1cc(N2CCNC2=O)c2cc(Cc3ccc(F)cc3)cnc2c1O | 248 to 250 °C |
| CNC(C(C)C)C(c1ccccc1)c1ccccc1 (stereo unspecified) | 46 to 48 °C |
| Cc1ccc(I)c(C(O)(C(F)(F)F)C(F)(F)F)c1 | 38 to 39 °C |
| C=C(C)C(=O)Nc1ccc(NC(=O)Nc2ccc(C#N)cc2)c(O)c1 | 247 to 249 °C |
| CCN(CCc1c[nH]c2ccccc12)C(=O)CCCC(=O)OC | 73 to 75 °C |
| NC(=O)c1cccc(-c2nc(=O)c3ccccc3s2)n1 | 295 °C |
| ClC(Cl)(Cl)c1cccc2nnsc12 | 67 to 69 °C |
| CC1CCN(c2ccc(Nc3ncc4c(n3)S/C(=C/c3ccc([N+](=O)[O-])cc3)C(=O)N4)cc2)CC1 | 280 to 282 °C |
| CCCOc1cc(C(=O)O)ccc1-c1ccc(-c2ccccc2)c(-c2ccc3c(c2)C(C)(C)CCC3(C)C)c1 | 216 to 218 °C |
| CCC(COS(C)(=O)=O)Nc1ccc(Cl)cc1[N+](=O)[O-] (stereo unspecified) | 91 to 93 °C |
| CCN(CC)c1ccc(N=c2scc(-c3ccc(Cl)c(S(=O)(=O)N(C)C)c3)n2C)cc1 | 184 to 185 °C |
| CCOC(=O)CC(O)CCCCCNC(=O)OCc1ccccc1 (stereo unspecified) | 47 to 50 °C |
| O=C1CCC(=O)N1SCc1ccc([N+](=O)[O-])cc1 | 146 to 148 °C |
| CCOC(=O)c1cn(-c2nccnn2)cn1 | 193 to 194 °C |
| NC(=O)c1ccccc1NC(=O)c1ccc(-n2nc(C(F)(F)F)cc2C(F)(F)F)cc1 | 195 to 196 °C |
| CCCc1nc2c(N)nc3cccnc3c2n1CC1(O)CCOC1 (stereo unspecified) | 171 to 173 °C |
| COCCc1sc2ncnc(N)c2c1-c1ccc(NS(=O)(=O)c2ccccc2)cc1 | 206 to 208 °C |
| CCOC(=O)c1c(NC2CC(C)(C)NC(C)(C)C2)cc(C)nc1C | 89 to 90 °C |
| N#Cc1cccc(C=O)c1[N+](=O)[O-] | 109 to 111 °C |
| COc1nccc2c(=O)n(C)c(N3C=CC(OC4CCN(C5CCC5)CC4)=NC3)nc12 | 199 to 200 °C |
| COc1ccc(-c2nc3ccccc3nc2-c2ccc(OC)cc2)cc1 | 148 °C |
| CN(C(=O)OC(C)(C)C)C1CCN(CC2(C)Cn3cc([N+](=O)[O-])nc3O2)CC1 (stereo unspecified) | 199 to 201 °C |
| O=C(O)COc1ccc(SCc2ccc(OCc3ccc(C(F)(F)F)cc3)cc2)c2c1CCCO2 | 143 to 144 °C |
| CCc1ccc2c(c1)cc(C(=O)Nc1nc(-c3c(OC)cc(C)cc3OC)n(CCC3CCCCC3)n1)n2CC(=O)OC | 191 °C |
| C#C[C@]1(C)CCc2c(C)c(O)c(C)c(C)c2O1 | 81 to 83 °C |

| SMILES | melting point |
| --- | --- |
| CCOC(=O)CC(=O)c1ccc(-c2ccc(Cl)cc2)o1 | 46 to 47 °C |
| CC(C)(O)c1cnc2c(NC(=O)c3c(Cl)cccc3Cl)cccc2c1 | 187 to 189 °C |
| CCCCn1c(=O)c(NC(=O)Nc2cc(Cc3cc[nH]n3)ccc2C(C)(C)C)c(-c2cccc(OCCCO)c2)c2cccnc21 | 116 to 119 °C |
| Cc1ccnc(C(=O)c2[nH]c3cc(C(F)(F)F)ccc3c2CC(=O)O)c1 | 210 to 220 °C |
| Oc1ccc(-n2nnnc2C2CC2)cc1 | 184 °C |
| CC1=C(c2cc(C)no2)C(=O)CCC1 | 104 to 105 °C |
| CNC(=S)C1(c2cccc(C)n2)CCCCS1 (stereo unspecified) | 139 °C |
| Cc1c(Br)ccc(OC(=O)C(C)(C)C)c1C(=O)O | 144 to 145 °C |
| CCOC(=O)c1c(O)c2ccc(F)cc2c(=O)n1CC(C)C | 104 to 105 °C |
| COc1ccc(N=C=O)cc1 | 83 to 84 °C |
| Nc1nc2c(s1)CCN(C/C=C\c1cccc3c1CC(=O)N3)CC2 | 192 to 195 °C |
| COc1ccc(C2Cc3cc(OC)c(OC)c(OC)c3C2=O)cc1 (stereo unspecified) | 104 to 106 °C |
| Cc1c(OCc2ccc(F)cc2)cnn(C(C)(C)C)c1=O | 65 to 66.5 °C |
| Nc1nc(OC2CCCC2)c2ncn([C@@H]3C[C@H](CO)[C@@H](O)C3)c2n1 | 181 to 182 °C |
| CCC(C)C(C#N)NCC(O)c1ccccc1 (stereo unspecified) | 106 to 108 °C |
| Nc1ccc(-c2ccc(C(=O)NC3CN4CCC3CC4)o2)cc1 (stereo unspecified) | 103 to 113 °C |
| CSc1ccc(OCCO)cc1 | 55 to 56.5 °C |
| COC(=O)Cc1ccc(OCCNC(=O)C2Cc3ccccc3N2S(=O)(=O)c2ccc(-c3ccc(Cl)cc3)c(C(F)(F)F)c2)cc1 (stereo unspecified) | 60 °C |
| CP(C)(=O)CNc1cc(Oc2ccc(C(F)(F)F)cc2Cl)ccc1[N+](=O)[O-] | 166 to 168 °C |
| CC(=O)Nc1ccn([C@@H]2CC[C@H](OC(C)=O)[C@@H](OC(C)=O)[C@H]2OC(C)=O)c(=O)n1 (racemic) | 226 °C |
| CN(N)c1nc(=S)[nH]c2[nH]cnc12 | 245 °C |
| Cn1cc(C(=O)O)c(=O)c2cc3cc(F)c(N4CCNC(c5ccc(OCCO)cc5)C4)cc3nc21 (racemic) | 276 °C |
| CN(Cc1cc2c(=O)c(C(=O)NCc3ccc(Cl)cc3)cn(C)c2s1)CC(O)c1ccc(O)cc1 (stereo unspecified) | 134 to 143 °C |
| O=C(O)CN1C(=O)SC(=Cc2ccc(OCc3ccccc3)c(OCc3ccccc3)c2)C1=O | 167 to 170 °C |
| O=c1[nH]c2ncc(-c3ccc(-n4ccnc4)cc3)nc2n1CC1CCCCC1 | 284 to 287 °C |
| CCCCNc1nc(C)no1 | 62 to 65 °C |

| SMILES | melting point |
| --- | --- |
| CC(C)C[C@H](NC(=O)OCc1ccccc1)C(=O)NCCCNC(=O)[C@H](CC(C)C)NC(=O)OCc1ccccc1 | 177 to 178 °C |
| O=C(O)c1cnn2c(C(F)(F)F)cc(-c3ccc(C(F)(F)F)cc3)cc12 | > 250 °C |
| CCCCC(C)C(C=Cc1ccc(OCc2ccccc2)c(OCc2ccccc2)c1)OC (stereo unspecified) | 36 to 38 °C |
| CNC(=O)Nc1ccc2[nH]cc(C3CCN(C)CC3)c2n1 | 229 to 230 °C |
| Cc1cccc2c1C(=O)c1c-2csc1N | 196 to 198 °C |
| CS(=O)c1ccc(-n2cnc3ccc(-c4nnc(N)o4)cc32)cc1 (stereo unspecified) | 290 to 291 °C |
| N#Cc1ccc(N(Cc2ccc(O)cc2)n2ccnc2)cc1 | 180 °C |
| COC(=O)[C@H]1[C@@H](NC(=O)COc2ccccc2)C(=O)N1Cc1ccc(OC)cc1OC (relative stereo) | 116 °C |
| N#CCCNC(=O)c1cccc(-c2cccc3oc(Cc4cccc(C(F)(F)F)c4)cc23)c1 | 107 to 108 °C |
| CCNC(=O)c1ccc(C=C2CC3CCC(C2)N3CCC(C(=O)N(C)C)(c2ccccc2)c2ccccc2)cc1 | 137 to 139 °C |
| Cc1nc(Sc2cc(C(=O)O)nc3ccccc23)sc1CC(=O)O | 219 to 220 °C |
| Cc1coc2c1C(=O)CC(c1ccccc1F)C2 (stereo unspecified) | 71 to 72 °C |
| CN(Cc1cc(C(F)(F)F)cc(C(F)(F)F)c1)C(=O)c1cnc(CC#N)nc1-c1ccccc1 | 114 to 116 °C |
| CCCCCCCCCCCCCCCCCCOc1cc(OCC(=O)O)cc(C(=O)N(CC(=O)O)CC(=O)O)c1 | 134 to 136 °C |
| O=C(NNS(=O)(=O)c1ccccc1)c1ccc(Cl)cc1Cl | 168 to 170 °C |
| COc1cc2c(cc1OC)CN(c1nc(N)nc(Cl)n1)CC2 | 196 to 197 °C |
| CSc1cc2c([nH]1)CC(C)(C)CC2=O | 195 to 196 °C |
| CN(C(=O)COc1nnc(C(F)F)s1)c1ccccc1 | 67 °C |
| O=C(O)c1ccccc1Nc1cccc(Br)c1 | 169 to 171 °C |
| Brc1ccc2cc(Nc3ccccc3)ccc2c1 | 126 to 128 °C |
| CC(C)n1nc(C(Cl)C(=O)c2ccc(F)cc2)ccc1=O (stereo unspecified) | 86.5 to 88 °C |
| CC[C@@H]1CN(c2c(F)cc3c(=O)c(C(=O)O)cn4c3c2OC[C@@H]4C)C[C@H]1N | 189 to 191 °C |
| COC(=O)C(=O)c1ccc(NC(=O)COc2ccc3ccccc3c2)cc1 | 175 to 176 °C |
| CSc1ccc(-c2c(Cl)nc(Cl)nc2-c2ccc(Cl)cc2)cc1 | 144 to 146 °C |
| CCn1cccc1Cc1cccc(NC(N)=O)c1 | 56 to 58 °C |
| Cc1cccc(C)c1NC(=O)CCCCCc1cccnc1 | 98 to 100 °C |

| SMILES | melting point |
| --- | --- |
| O=C(O)C1=Cc2c(ccc(Cl)c2-c2ccccc2)OC1C(F)(F)F (stereo unspecified) | 229 to 231 °C |
| COC(C)C(O)(Cc1ccc(Cl)cc1Cl)c1cccnc1 (stereo unspecified) | 94 to 95 °C |
| Clc1ccc2ncn3cnnc3c2c1 | 179 to 182 °C |
| O=c1oc2c(Br)cc(Br)cc2s1 | 104 to 106 °C |
| NC(=O)C1CN(c2c(F)cc3c(=O)c(C(=O)O)cn(C4CC4)c3c2F)C1 | 295 to 298 °C |
| COc1cc(OC)nc(Sc2c([N+](=O)[O-])c(C)nn2C)n1 | 124 to 125 °C |
| Cc1c(N2CCC(C)(NC(=O)OC(C)(C)C)C2)c(F)c(N)c2c(=O)c(C(=O)O)cn(C3CC3)c12 (stereo unspecified) | 214 °C |
| COc1cc2nc(NC3CC3)nc(-c3cccc([N+](=O)[O-])c3)c2cc1OC | 140 to 142 °C |
| Cc1ccc2c(CCN)c[nH]c2c1C | 171 to 173 °C |
| COc1ccc(-c2cc3cc(OC)cc(CC(F)(F)F)c3o2)cc1 | 113 to 115 °C |
| COc1ccc2c(c1)C(N=Cc1ccc(O)c(OC)c1)CCO2 (stereo unspecified) | 136 to 139 °C |
| O=C(COCCCl)Nc1ccc([N+](=O)[O-])cc1 | 101 to 102 °C |
| OC[C@@H](O)c1ccccc1Cl | 39 °C |
| CCOC(=O)CCC(=O)CSc1nc2cc(Cl)c(F)cc2c(O)c1C(=O)OCC | 144 °C |
| O=C(O)CCCC[C@@H]1SC[C@H]2[C@@H]1N(Cc1ccccc1)C(=O)N2Cc1ccccc1 | 88 to 89 °C |
| CCOC(=O)c1csc([N+](=O)[O-])c1Br | 94 to 95 °C |
| O=c1cc(-c2ccoc2)c2ccc(Sc3cc(F)cc(-c4ccccc4)c3)cc2o1 | 122 to 124 °C |
| CCOC(=O)c1cc([N+](=O)[O-])cn1CCC(C)C | 46 to 47 °C |
| CCOC(=O)c1nc2scc(CN(C)Cc3ccccc3)c2c(=O)[nH]1 | 129 °C |
| O=C1CC=C(c2ccccc2Cl)c2cc(Cl)ccc2N1 | 171 °C |
| CC(C)c1cccc(C(C)C)c1NC(=O)NCC1(c2ccc3ccccc3c2)CCC1 | 146 to 150 °C |
| O=C(O)C=C1SC(=NCCc2ccccc2)N(CCc2ccccc2)C1=O | 148 to 149 °C |
| COc1ccc(C[C@H](N)[C@H](O)c2ccc(F)cc2)cc1 (racemic) | 78 to 79 °C |
